Experimental findings from publication PMC7714403 (JCI Insight, 2020) are described below.

In assay [1] the test system is native kinases in MOLM13 cells. Briefly: KiNativ in situ kinase profiling, MOLM13 cells. It counts as cell-based, human. Conditions: 100 nM, compared with DMSO. The procedure: Samples were analyzed by KiNativ in situ kinase profiling by ActivX Biosciences.
The next assay has as its target T1, LATS1 (Homo sapiens, UniProt O95835).
T1 sequence (O95835 1-1130): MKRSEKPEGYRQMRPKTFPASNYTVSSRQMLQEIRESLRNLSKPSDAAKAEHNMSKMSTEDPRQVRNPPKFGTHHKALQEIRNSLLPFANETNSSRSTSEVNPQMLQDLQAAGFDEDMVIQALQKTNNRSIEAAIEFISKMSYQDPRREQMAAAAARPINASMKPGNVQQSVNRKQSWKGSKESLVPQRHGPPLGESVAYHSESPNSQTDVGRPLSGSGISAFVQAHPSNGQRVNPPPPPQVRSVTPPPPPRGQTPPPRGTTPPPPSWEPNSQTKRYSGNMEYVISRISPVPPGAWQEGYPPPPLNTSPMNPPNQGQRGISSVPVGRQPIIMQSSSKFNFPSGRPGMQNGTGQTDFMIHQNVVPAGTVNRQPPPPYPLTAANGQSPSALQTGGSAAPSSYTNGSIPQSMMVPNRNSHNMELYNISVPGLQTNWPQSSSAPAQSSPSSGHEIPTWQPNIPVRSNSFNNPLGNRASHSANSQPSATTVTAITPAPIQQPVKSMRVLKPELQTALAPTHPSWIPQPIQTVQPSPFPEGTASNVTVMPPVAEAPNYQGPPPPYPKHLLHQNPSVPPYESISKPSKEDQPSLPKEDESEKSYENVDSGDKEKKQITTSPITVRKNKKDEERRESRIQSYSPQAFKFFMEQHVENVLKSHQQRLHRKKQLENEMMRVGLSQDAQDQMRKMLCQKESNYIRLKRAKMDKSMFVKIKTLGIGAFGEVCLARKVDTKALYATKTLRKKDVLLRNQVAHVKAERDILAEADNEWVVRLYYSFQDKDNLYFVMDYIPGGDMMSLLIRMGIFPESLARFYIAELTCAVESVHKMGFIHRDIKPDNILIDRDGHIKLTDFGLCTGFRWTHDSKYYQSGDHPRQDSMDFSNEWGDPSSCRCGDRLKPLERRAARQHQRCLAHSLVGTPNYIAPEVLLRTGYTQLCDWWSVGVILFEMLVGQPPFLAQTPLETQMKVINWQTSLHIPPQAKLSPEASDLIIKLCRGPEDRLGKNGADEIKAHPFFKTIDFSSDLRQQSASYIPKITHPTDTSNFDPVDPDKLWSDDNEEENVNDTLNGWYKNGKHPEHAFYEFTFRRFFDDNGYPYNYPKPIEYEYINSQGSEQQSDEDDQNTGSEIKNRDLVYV
Briefly: KiNativ, OCI cells live cell. It counts as cell-based. Conditions: 2 h.

The target in the next assay is T2, MASTL (Homo sapiens, UniProt Q96GX5).
T2 sequence (Q96GX5 1-879): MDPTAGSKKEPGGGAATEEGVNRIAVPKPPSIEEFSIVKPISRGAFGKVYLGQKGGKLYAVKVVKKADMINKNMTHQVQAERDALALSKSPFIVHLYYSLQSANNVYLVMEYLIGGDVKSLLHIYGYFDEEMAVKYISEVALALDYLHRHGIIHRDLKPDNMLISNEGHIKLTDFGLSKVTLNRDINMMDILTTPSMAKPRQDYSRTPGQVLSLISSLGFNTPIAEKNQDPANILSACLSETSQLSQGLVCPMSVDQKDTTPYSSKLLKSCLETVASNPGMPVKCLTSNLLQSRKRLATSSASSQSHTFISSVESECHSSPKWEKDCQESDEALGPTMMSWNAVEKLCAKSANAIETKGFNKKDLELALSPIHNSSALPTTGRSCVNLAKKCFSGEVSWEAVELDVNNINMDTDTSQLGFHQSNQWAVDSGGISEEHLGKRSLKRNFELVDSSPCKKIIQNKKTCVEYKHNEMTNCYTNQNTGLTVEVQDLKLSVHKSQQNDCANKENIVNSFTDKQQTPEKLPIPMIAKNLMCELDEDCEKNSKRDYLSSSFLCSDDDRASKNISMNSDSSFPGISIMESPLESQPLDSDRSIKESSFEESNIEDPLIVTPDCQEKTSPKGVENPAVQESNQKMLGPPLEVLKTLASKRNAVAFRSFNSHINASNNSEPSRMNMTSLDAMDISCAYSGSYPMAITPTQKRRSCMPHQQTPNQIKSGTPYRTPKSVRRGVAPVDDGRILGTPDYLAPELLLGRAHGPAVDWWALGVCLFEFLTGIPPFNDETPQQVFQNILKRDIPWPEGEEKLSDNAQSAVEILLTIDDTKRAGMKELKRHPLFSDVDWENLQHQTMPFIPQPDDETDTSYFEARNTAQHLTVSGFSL
Briefly: KiNativ, OCI cells live cell. It counts as cell-based.

The next assay concerns the target PCTAIRE2 (Homo sapiens, UniProt Q00537). The assay is described as follows: KiNativ, OCI cells live cell. It is filed as cell-based. Particulars: 2 h, labeling site Lys2, peptide […].
A further assay deals with PKCi (Homo sapiens, UniProt P41743). The assay is described as follows: KiNativ, OCI cells live cell. It is filed as cell-based. Particulars: 2 h.
Chain of PKCi (P41743 whole entry): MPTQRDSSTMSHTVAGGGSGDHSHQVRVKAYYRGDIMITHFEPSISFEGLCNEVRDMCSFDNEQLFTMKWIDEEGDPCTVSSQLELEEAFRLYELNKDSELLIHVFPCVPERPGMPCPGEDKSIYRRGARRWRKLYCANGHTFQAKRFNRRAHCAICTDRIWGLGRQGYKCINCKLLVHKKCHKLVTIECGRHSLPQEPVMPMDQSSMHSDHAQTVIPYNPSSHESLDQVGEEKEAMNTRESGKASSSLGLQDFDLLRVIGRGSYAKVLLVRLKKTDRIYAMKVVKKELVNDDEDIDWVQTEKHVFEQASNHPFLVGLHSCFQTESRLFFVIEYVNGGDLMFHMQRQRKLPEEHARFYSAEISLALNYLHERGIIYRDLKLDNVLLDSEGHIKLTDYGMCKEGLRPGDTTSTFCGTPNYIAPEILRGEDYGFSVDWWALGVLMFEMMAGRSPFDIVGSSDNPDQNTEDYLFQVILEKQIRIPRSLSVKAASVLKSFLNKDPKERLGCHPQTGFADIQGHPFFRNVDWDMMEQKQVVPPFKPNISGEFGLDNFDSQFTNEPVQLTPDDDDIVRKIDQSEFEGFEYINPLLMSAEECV
For the next assay, the target named is RIPK3 (Homo sapiens, UniProt Q9Y572). The assay is described as follows: KiNativ, OCI cells live cell. It counts as cell-based. Conditions: 2 h, labeling site Lys2, peptide […].
Chain of RIPK3 (Q9Y572 whole entry, the tested form may be a part): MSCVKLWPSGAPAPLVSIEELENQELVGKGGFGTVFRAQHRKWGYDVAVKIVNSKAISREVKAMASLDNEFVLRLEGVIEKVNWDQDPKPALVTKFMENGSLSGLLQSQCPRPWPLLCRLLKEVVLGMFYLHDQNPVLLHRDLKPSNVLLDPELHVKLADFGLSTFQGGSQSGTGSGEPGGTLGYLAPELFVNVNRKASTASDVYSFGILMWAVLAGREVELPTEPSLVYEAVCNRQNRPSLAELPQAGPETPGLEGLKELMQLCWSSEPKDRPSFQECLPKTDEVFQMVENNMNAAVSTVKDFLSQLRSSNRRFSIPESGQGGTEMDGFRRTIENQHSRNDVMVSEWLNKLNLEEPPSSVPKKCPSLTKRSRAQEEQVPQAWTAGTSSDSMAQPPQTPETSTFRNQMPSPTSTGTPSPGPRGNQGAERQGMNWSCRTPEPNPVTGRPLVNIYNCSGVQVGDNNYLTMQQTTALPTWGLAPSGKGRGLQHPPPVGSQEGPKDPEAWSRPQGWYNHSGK
The target of a further assay is T3, RSK1 domain2 (Homo sapiens, UniProt Q15418).
T3 construct: RSK1 domain2
T3 sequence (Q15418 whole entry, the tested form may be a part): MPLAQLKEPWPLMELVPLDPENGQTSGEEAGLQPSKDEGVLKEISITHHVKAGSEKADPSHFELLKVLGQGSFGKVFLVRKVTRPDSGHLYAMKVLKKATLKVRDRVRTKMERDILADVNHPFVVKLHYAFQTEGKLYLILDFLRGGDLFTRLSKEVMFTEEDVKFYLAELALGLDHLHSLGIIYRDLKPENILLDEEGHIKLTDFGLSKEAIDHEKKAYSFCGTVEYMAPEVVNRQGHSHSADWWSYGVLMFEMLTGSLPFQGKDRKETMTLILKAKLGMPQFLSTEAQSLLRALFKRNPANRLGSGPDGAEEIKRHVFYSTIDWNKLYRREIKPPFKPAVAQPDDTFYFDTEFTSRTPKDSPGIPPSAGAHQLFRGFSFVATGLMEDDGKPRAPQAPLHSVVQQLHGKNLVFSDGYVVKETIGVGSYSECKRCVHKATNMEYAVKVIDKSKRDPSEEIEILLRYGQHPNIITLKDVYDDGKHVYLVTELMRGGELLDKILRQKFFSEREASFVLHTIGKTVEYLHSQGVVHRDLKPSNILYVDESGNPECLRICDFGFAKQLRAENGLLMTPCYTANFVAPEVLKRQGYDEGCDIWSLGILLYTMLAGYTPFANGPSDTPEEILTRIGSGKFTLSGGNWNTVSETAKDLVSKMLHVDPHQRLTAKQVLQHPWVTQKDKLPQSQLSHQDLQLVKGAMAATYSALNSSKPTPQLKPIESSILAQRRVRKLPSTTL
Briefly: KiNativ, OCI cells live cell. It counts as cell-based. Particulars: 2 h, labeling site Lys2, peptide […].

Another assay has as its target ACK1 (Homo sapiens, UniProt Q07912). Briefly: KdELECT binding assay. Further details: purchased Eurofins DiscoverX.

Chain of ACK1 (Q07912 whole entry): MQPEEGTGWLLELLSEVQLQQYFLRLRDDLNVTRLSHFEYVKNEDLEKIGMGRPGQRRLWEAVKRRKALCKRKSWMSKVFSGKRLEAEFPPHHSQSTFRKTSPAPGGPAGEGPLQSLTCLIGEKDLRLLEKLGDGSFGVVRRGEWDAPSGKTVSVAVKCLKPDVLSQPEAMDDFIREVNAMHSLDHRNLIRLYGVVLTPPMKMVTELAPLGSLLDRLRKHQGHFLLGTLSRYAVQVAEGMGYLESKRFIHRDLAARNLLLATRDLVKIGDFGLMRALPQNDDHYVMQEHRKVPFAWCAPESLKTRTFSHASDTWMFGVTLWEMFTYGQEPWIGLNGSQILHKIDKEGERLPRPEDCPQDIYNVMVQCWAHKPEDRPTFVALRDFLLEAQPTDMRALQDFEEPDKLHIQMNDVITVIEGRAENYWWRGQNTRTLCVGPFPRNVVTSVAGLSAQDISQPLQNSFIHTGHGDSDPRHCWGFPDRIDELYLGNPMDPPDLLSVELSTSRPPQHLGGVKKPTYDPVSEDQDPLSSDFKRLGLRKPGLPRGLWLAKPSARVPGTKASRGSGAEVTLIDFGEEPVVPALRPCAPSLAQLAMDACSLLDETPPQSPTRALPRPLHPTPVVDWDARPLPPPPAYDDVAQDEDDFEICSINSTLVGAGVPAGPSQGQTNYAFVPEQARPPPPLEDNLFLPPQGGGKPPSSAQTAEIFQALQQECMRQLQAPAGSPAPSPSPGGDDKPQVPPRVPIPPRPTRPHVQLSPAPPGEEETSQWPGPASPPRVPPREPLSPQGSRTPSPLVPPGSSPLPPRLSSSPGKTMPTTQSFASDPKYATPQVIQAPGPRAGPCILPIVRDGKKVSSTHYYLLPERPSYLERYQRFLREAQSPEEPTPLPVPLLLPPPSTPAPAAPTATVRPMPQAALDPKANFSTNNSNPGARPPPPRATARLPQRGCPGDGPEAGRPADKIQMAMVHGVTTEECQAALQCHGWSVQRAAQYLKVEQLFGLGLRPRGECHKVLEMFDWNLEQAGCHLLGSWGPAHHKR
Chain of PCTAIRE2 (Q00537 whole entry): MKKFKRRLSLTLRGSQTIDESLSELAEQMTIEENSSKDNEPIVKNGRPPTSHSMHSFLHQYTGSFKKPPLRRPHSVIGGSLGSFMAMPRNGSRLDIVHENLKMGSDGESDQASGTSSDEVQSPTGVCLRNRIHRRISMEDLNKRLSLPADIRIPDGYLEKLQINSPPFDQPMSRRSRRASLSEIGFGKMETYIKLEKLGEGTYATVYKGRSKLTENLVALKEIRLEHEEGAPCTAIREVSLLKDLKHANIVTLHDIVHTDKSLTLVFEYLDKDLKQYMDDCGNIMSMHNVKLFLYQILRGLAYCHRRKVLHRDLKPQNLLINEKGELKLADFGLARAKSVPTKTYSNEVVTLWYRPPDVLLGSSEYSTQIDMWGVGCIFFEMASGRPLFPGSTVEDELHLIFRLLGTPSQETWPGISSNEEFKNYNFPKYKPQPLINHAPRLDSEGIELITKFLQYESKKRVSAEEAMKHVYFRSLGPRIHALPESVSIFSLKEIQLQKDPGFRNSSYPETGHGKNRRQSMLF

On to `CN1CCN(Cc2ccc(Nc3ncc(Cl)c(Nc4ccccc4S(=O)(=O)N(C)C)n3)cc2)CC1` [TP-0903], for which the “Inhibition of AURKA/B/C, CDK6/7, BTK, and JAK1” value in assay [1] is “moderate to strong inhibition”. Moreover, the inhibition at 0.1 µM amounted to 11.6% against LATS1 (labeling site Lys1, peptide ALYATKTLR); 7.9% against LATS1 (labeling site Lys2, peptide DIKPDNILIDR); 87.8% against PCTAIRE2; 9.2% at PKCi (labeling site Lys1, peptide IYAMKVVK); 8.9% on PKCi (labeling site Lys2, peptide DLKLDNVLLDSEGHIK); 2.8% against RIPK3. Also, at 0.1 µM the inhibition at RSK1 domain2 was 8.6%. In addition, the Inhibition at MASTL (labeling site ATP Loop, peptide GAFGKVYLGQK) is 6.7%; at MASTL (labeling site Lys1, peptide LYAVKVVK), 34.3%. In addition, at ACK1, the Kd turned out to be 7.3 nM.
